These results are taken from patent US10112941B2, “Tricyclic compounds as anticancer agents” (BRISTOL-MYERS SQUIBB COMPANY, priority 2013, dated 2018).

pIC50: −log10 of the molar value.

The target in this assay is BRD4 (Homo sapiens, UniProt O60885). The assay can be described thus: Time Resolved Fluorescence Resonance Energy Transfer (TR-FRET) binding assay, BRD4. The conditions noted are these: one of the FRET assays described; read-out: FRET BRD4 IC50.

As for `[2H]C([2H])([2H])c1nnn(C)c1-c1cnc2c3ccc(C(C)(C)O)cc3n([C@H](c3ccccc3)C3CCOCC3)c2c1` [Example 262, 2-{3-[4-(^2H3)Methyl-1-methyl-1H-1,2,3-triazol-5-yl]-5-[(S)-oxan-4-yl(phenyl)methyl]-5H-pyrido[3,2-b]indol-7-yl}propan-2-ol], the pIC50 is above 8.30.

`Cc1nnn(C)c1-c1cnc2c3ccc(CS(C)(=O)=O)cc3n([C@H](c3ncccc3Cl)C3CCOCC3)c2c1` [Example 339]: the pIC50 is above 8.30.

For the molecule `Cc1nnn(C)c1-c1cnc2c3c(F)ccc(CO)c3n([C@H](c3ccccc3)C3CCOCC3)c2c1` [Example 152, [3-(Dimethyl-1H-1,2,3-triazol-5-yl)-9-fluoro-5-[(S)-oxan-4-yl(phenyl)methyl]-5H-pyrido[3,2-b]indol-6-yl]methanol], the pIC50 was above 8.30.

`Cc1nnc(C)n1-c1cnc2c3ccc(C(C)(C)O)cc3n(C(c3ccccc3)C3CCOCC3)c2c1` (stereo in doubt) [Example 357, 2-[3-(Dimethyl-4H-1,2,4-triazol-4-yl)-5-[(R)-oxan-4-yl(phenyl)methyl]-5H-pyrido[3,2-b]indol-7-yl]propan-2-ol]: the pIC50 was above 8.30.

Consider `COc1ccc(S(C)(=O)=O)c2c1c1ncc(-c3c(C)nnn3C)cc1n2[C@H](c1ccccc1)C1CCOCC1` [Example 182, 5-{6-Methanesulfonyl-9-methoxy-5-[(S)-oxan-4-yl(phenyl)methyl]-5H-pyrido[3,2-b]indol-3-yl}-1,4-dimethyl-1H-1,2,3-triazole], for which the pIC50 is above 8.30.

Take `[2H]C([2H])([2H])c1nnn(C)c1-c1cnc2c3c(F)cc(S(C)(=O)=O)cc3n(C(c3ncccc3F)C3CCC(F)(F)CC3)c2c1` (stereo not drawn) [Example 212, 2-[(4,4-Difluorocyclohexyl)({9-fluoro-7-methanesulfonyl-3-[4-(^2H3)methyl-1-methyl-1H-1,2,3-triazol-5-yl]-5H-pyrido[3,2-b]indol-5-yl})methyl]-3-fluoropyridine]: the pIC50 is above 8.30.

On to `Cc1nnn(C)c1-c1cnc2c3ccc(C(C)(C)O)cc3n(C(CC3CC3)C3CCOCC3)c2c1` (single isomer, unassigned) [Example 394], for which the pIC50 is above 8.30.

For `[2H]C([2H])([2H])c1nnn(C)c1-c1cnc2c3c(NCC(C)(C)N)ccc(S(C)(=O)=O)c3n([C@H](c3ccccc3)C3CCOCC3)c2c1` [Example 226, N-(2-Amino-2-methylpropyl)-6-methanesulfonyl-3-[4-(^2H3)methyl-1-methyl-1H-1,2,3-triazol-5-yl]-5-[(S)-oxan-4-yl(phenyl)methyl]-5H-pyrido[3,2-b]indol-9-amine], the pIC50 was above 8.30.

As for `Cn1nnc(N)c1-c1cnc2c3ccc(C(C)(C)O)cc3n([C@H](c3ccccc3)C3CCOCC3)c2c1` [Example 389, 2-[3-(4-Amino-1-methyl-1H-1,2,3-triazol-5-yl)-5-[(S)-oxan-4-yl(phenyl)methyl]-5H-pyrido[3,2-b]indol-7-yl]propan-2-ol], the pIC50 was above 8.30.

As for `COc1ccc(C(C2CCOCC2)n2c3cc(C(C)(C)O)ccc3c3ncc(-c4c(C)nnn4C)cc32)cc1` (single isomer, unassigned) [Example 249, 2-[3-(Dimethyl-1H-1,2,3-triazol-5-yl)-5-[(4-methoxyphenyl)(oxan-4-yl)methyl]-5H-pyrido[3,2-b]indol-7-yl]propan-2-ol], the negative-log IC50 (pIC50) is above 8.30.

As for `Cc1nnn(C)c1-c1cnc2c3c(F)cc(S(C)(=O)=O)cc3n([C@H](c3ccccc3)C3CCOCC3)c2c1` [Example 194, 5-{9-Fluoro-7-methanesulfonyl-5-[(S)-oxan-4-yl(phenyl)methyl]-5H-pyrido[3,2-b]indol-3-yl}-1,4-dimethyl-1H-1,2,3-triazole], the pIC50 is above 8.30.

As for `[2H]C([2H])([2H])c1nnn(C)c1-c1cnc2c3ccc(C(C)(C)O)c(F)c3n(C(c3ccc(F)cn3)C3CCOCC3)c2c1` (single isomer, unassigned) [Example 324], the pIC50 was above 7.60.

With `COc1cnccc1C(C1CCOCC1)n1c2cc(C(C)(C)O)ccc2c2ncc(-c3c(C)nnn3C)cc21` (stereo not drawn) [Example 291], the pIC50 was above 8.30.

On to `Cc1nnn(C)c1-c1cnc2c3ccc(C(C)(O)C4CC4)c(F)c3n([C@H](c3ccccc3)C3CCOCC3)c2c1` (stereo partly drawn) [Example 416, 1-Cyclopropyl-1-{6-fluoro-3-[4-(^2H3)methyl-1-methyl-1H-1,2,3-triazol-5-yl]-5-[(S)-oxan-4-yl(phenyl)methyl]-5H-pyrido[3,2-b]indol-7-yl}ethan-1-ol], for which the pIC50 is above 8.30.

As to `COc1ccc(S(C)(=O)=O)c2c1c1ncc(-c3c(C)noc3C)cc1n2[C@H](c1ccccc1)C1CCOCC1` [Example 185, 4-{6-Methanesulfonyl-9-methoxy-5-[(S)-oxan-4-yl(phenyl)methyl]-5H-pyrido[3,2-b]indol-3-yl}-3,5-dimethyl-1,2-oxazole], the pIC50 was above 8.30.

Take `[2H]C([2H])([2H])c1nnn(C)c1-c1cnc2c3ccc(C(C)(C)O)c(F)c3n([C@H](c3ccccc3F)C3CCOCC3)c2c1` [Example 272, 2-{6-Fluoro-5-[(S)-(2-fluorophenyl)(oxan-4-yl)methyl]-3-[4-(^2H3)methyl-1-methyl-1H-1,2,3-triazol-5-yl]-5H-pyrido[3,2-b]indol-7-yl}propan-2-ol]: the pIC50 is above 8.30.

For `Cc1noc(C)c1-c1cnc2c3ccc(C(C)(C)O)cc3n(C(c3c(F)cc(F)cc3F)C3CCOCC3)c2c1` (single isomer, unassigned) [Example 127, 2-[3-(Dimethyl-1,2-oxazol-4-yl)-5-[oxan-4-yl(2,4,6-trifluorophenyl)methyl]-5H-pyrido[3,2-b]indol-7-yl]propan-2-ol], the pIC50 is above 8.30.

For the molecule `Cc1nnn(C)c1-c1cnc2c3ccc(S(C)(=O)=O)cc3n(C(c3ccccc3)C3CCC(F)(F)CC3)c2c1` (single isomer, unassigned) [Example 156, 5-{5-[(4,4-Difluorocyclohexyl)(phenyl)methyl]-7-methanesulfonyl-5H-pyrido[3,2-b]indol-3-yl}-1,4-dimethyl-1H-1,2,3-triazole], the pIC50 is above 8.30.

Regarding `Cc1nnn(C)c1-c1cnc2c3ccc(CS(C)(=O)=O)cc3n([C@@H](c3ccc(Cl)cn3)C3CCOCC3)c2c1` [Example 334], the pIC50 is above 8.30.

Take `Cc1nnn(C)c1-c1cnc2c3ccc(CO)cc3n([C@H](c3ccccc3)C3CCOCC3)c2c1` [Example 405, [3-(Dimethyl-1H-1,2,3-triazol-5-yl)-5-[(S)-oxan-4-yl(phenyl)methyl]-5H-pyrido[3,2-b]indol-7-yl]methanol]: the pIC50 is above 8.30.

Regarding `[2H]C([2H])([2H])c1nnn(C)c1-c1cnc2c3c(OC)cc(C(C)(C)O)cc3n(C(c3cc(C)on3)C3CCOCC3)c2c1` (single isomer, unassigned) [Example 312], the pIC50 is above 8.30.

For `Cc1nnn(C)c1-c1cnc2c3ccc(C(C)(C)O)cc3n([C@@H](c3ccccc3)C3CCOCC3)c2c1` [Example 91, 2-[3-(dimethyl-1H-1,2,3-triazol-5-yl)-5-[(R)-oxan-4-yl(phenyl)(^2H)methyl]-5H-pyrido[3,2-b]indol-7-yl]propan-2-ol], the negative logarithm of the IC50 (pIC50) is above 7.60.

Consider `Cc1noc(C)c1-c1cnc2c3ccc(C(C)(C)O)cc3n([C@H](CCC(F)(F)F)c3cscn3)c2c1` [Example 19], for which the pIC50 is above 8.30.

On to `[2H]C([2H])([2H])c1nnn(C)c1-c1cnc2c3c(OC)cc(C(C)(C)O)cc3n(C(c3ccncc3F)C3CCOCC3)c2c1` (stereo not drawn) [Example 347, 2-{5-[(3-Fluoropyridin-4-yl)(oxan-4-yl)methyl]-9-methoxy-3-[4-(^2H3)methyl-1-methyl-1H-1,2,3-triazol-5-yl]-5H-pyrido[3,2-b]indol-7-yl}propan-2-ol], for which the pIC50 is above 8.30.

Regarding `Cc1cccc(C(C2CCOCC2)n2c3cc(C(C)(C)O)ccc3c3ncc(-c4c(C)nnn4C)cc32)n1` (single isomer, unassigned) [Example 295], the pIC50 was above 8.30.

With `Cc1n[nH]cc1-c1cnc2c3ccc(S(C)(=O)=O)cc3n([C@H](c3ccccc3)C3CCOCC3)c2c1` [Example 455, 4-{7-Methanesulfonyl-5-[(S)-oxan-4-yl(phenyl)methyl]-5H-pyrido[3,2-b]indol-3-yl}-3-methyl-1H-pyrazole], the pIC50 is above 7.60.

On to `Cc1nnn(C)c1-c1cnc2c3ccc(C(C)(C)O)cc3n(C(CCC(F)(F)F)c3ccccn3)c2c1` (single isomer, unassigned) [Example 254, 2-[3-(Dimethyl-1H-1,2,3-triazol-5-yl)-5-[4,4,4-trifluoro-1-(pyridin-2-yl)butyl]-5H-pyrido[3,2-b]indol-7-yl]propan-2-ol], for which the pIC50 was above 8.30.

As to `[2H]C([2H])([2H])c1nnn(C)c1-c1cnc2c3cc(F)c(C(C)(C)O)cc3n(C(c3cc(OC)ccn3)C3CCOCC3)c2c1` (single isomer, unassigned) [Example 326], the pIC50 was above 7.60.

For `Cc1nnn(C)c1-c1cnc2c3c(C(=O)NC4CC4)cccc3n([C@H](c3ccccc3)C3CCOCC3)c2c1` [Example 151, N-Cyclopropyl-3-(dimethyl-1H-1,2,3-triazol-5-yl)-5-[(S)-oxan-4-yl(phenyl)methyl]-5H-pyrido[3,2-b]indole-9-carboxamide], the pIC50 was above 8.30.

For `C=C(C)c1ccc2c3ncc(-c4c(C)nnn4C)cc3n([C@H](c3ccccc3)C3CCOCC3)c2c1` [Example 420, 1,4-Dimethyl-5-{5-[(S)-oxan-4-yl(phenyl)methyl]-7-(prop-1-en-2-yl)-5H-pyrido[3,2-b]indol-3-yl}-1H-1,2,3-triazole], the pIC50 is above 8.30.

For the molecule `Cc1ncn(C)c1-c1cnc2c3ccc(S(C)(=O)=O)cc3n([C@H](c3ccccc3)C3CCOCC3)c2c1` [Example 454, 5-{7-Methanesulfonyl-5-[(S)-oxan-4-yl(phenyl)methyl]-5H-pyrido[3,2-b]indol-3-yl}-1,4-dimethyl-1H-imidazole], the pIC50 is above 7.60.

With `CC(=O)NC(C)(C)c1ccc2c3ncc(-c4c(C)nnn4C)cc3n([C@H](c3ccccc3)C3CCOCC3)c2c1F` [Example 462, N-{2-[3-(Dimethyl-1H-1,2,3-triazol-5-yl)-6-fluoro-5-[(S)-oxan-4-yl(phenyl)methyl]-5H-pyrido[3,2-b]indol-7-yl]propan-2-yl}acetamide], the pIC50 was above 8.30.

On to `[2H]C([2H])([2H])c1nnn(C)c1-c1cnc2c3ccc(C(C)(C)O)cc3n(C(c3ncccc3Cl)C3CCOCC3)c2c1` (single isomer, unassigned) [Example 321], for which the pIC50 was above 8.30.

The term pIC50 denotes the negative decadic logarithm of the IC50, by convention in mol/L.
